Results taken from patent publication US20210137992A1, “HYPOXIA-INDUCIBLE FACTOR-2A AS A TARGET IN PREVENTION/TREATMENT OF PARKINSON'S DISEASE” (QIngdao University, priority 2019, published 2021).

Legend:
DMT1 = assay: Western blot of DMT1 protein expression in primary cultured astrocytes; type: cell-based, Wistar suckling rats
Method: (§1) The astrocytes were inoculated into a six-well plate pre-coated with polylysine at a density of 1.5×10^5/ml. In order to detect the activation of HIF-1α and HIF-2α by 6-OHDA and the corresponding protein expression of DMT1 and FPN1, the cells were divided into groups and treated with drugs. After being treated with 10 μM of 6-OHDA for 24 h, the cells were collected to extract the total protein.
(§2) In order to test the influence of inhibiting the activation of HIF-2α on the protein expression of DMT1 and FPN1 in the astrocytes, the cells were pre-treated with 10 μM of the HIF-2α translation inhibitor for 24 h, and then added with 10 μM of 6-OHDA for co-action for 24 h. Then the total protein was extracted.
(§3) In order to test the influence of inhibiting the activation of HIF-1α on the protein expression of DMT1 and FPN1 in the astrocytes, the cells were pre-treated with 10 μM of Bay87-2243 for 48 h, and then added with 10 μM of 6-OHDA for co-action for 24 h. Then the total protein was extracted.
(§4) The activation and inhibition of HIF-1α and HIF-2α by 6-OHDA and the corresponding protein expression of DMT1 and FPN1 were detected by Western blots.
(§5) After drug treatment of the cells, the medium was completely blotted up, the cells were washed with pre-chilled PBS for three times, and 100 μl of the cell lysis buffer: RIPA lysis buffer (strong) was added to each well, and the cells were lysed on ice for 0.5 h.
(§6) The concentration of the extracted protein was detected by the BCA protein quantitative kit. The protein was sub-packaged according to 30 μg per serving, brought to the same volume with 0.01M PBS, then added with a 4× loading buffer and mixed well, subjected to a water batch above 95° C. for 5 min to denature the protein, and cryopreserved in the refrigerator at −80° C.
(§7) The corresponding primary antibodies were diluted with 5% skim milk: HIF-1α was diluted at 1:1000, HIF-2α was diluted at 1:1000, DMT1 was diluted at 1:800, FPN1 was diluted at 1:800, β-actin was diluted at 1:10000, and incubated in the shaker at 4° C. overnight. It was rinsed with the 1×TBST buffer for 3 times, each time for 10 min.
(§8) The intensity of bands was subjected to density analysis with the Vision Works LS image acquisition and analysis software.

[1] = tested on: primary cultured astrocytes; assay: Calcein fluorescence ferrous iron influx (transport-in) assay; type: cell-based, Wistar suckling mice; settings: 1 mM ferrous iron perfusion
Method: (§9) The primary-cultured astrocytes were plated at a plating density of 5×10^4/well in a 24-well plate with a polylysine-treated cover slip placed in each well. After the astrocytes were cultured for 48 h, the medium was blotted up, and the cells were rinsed gently with the DMEM/F12 basic medium preheated at 37° C. The cells were then treated in groups with 6 wells in each group, and were continually cultured in a 5% CO2 incubator at 37° C. for 24 h. The medium was blotted up. The cells were rinsed once with HBS preheated at 37° C., added with calcein (0.5 μM), placed in an incubator at 37° C. for 0.5 h for loading, then rinsed with HBS for three times, and then detected.
Calcein-AM was a membrane-permeable non-fluorescent molecule. […] Calcein had high affinity for all of divalent metal ions, and could be combined with various divalent metal ions in the cells and then converted into non-fluorescent substances, which leads to the quenching of the fluorescence. In this experimental system, other divalent metal ions such as Mg^2+ and Ca^2+ were removed, and only a Fe^2+ solution was used for perfusion to ensure that the fluorescence change of intracellular calcein was caused by its binding with Fe^2+. The level of cheatable iron in the cells was estimated by determining the decrease degree of the fluorescence intensity. […]

HIF-2α [2] = assay: Western blot of HIF-2α protein expression in primary cultured astrocytes; type: cell-based
Method: as §1, §2, §4, §5, §6, §7, §8

[3] = tested on: primary cultured astrocytes; assay: Calcein fluorescence iron efflux (transport-out) assay with DFO perfusion; type: cell-based, Wistar suckling rats; settings: 1 mM DFO perfusion
Method: as §9
Calcein-AM was a membrane-permeable non-fluorescent molecule. […] Calcein had high affinity for all of divalent metal ions, and could be combined with various divalent metal ions in the cells and then converted into non-fluorescent substances, which leads to the quenching of the fluorescence. […] The level of cheatable iron in the cells was estimated by determining the decrease degree of the fluorescence intensity. The fluorescence intensity of calcein was inversely proportional to the content of free iron in the cells. When the level of iron in the cells was increased, the free iron combined with calcein, the fluorescence was quenched, and thus the fluorescence intensity was decreased, otherwise it was increased. […]

HIF-1α [4] = assay: Western blot of HIF-1α protein expression in primary cultured astrocytes; type: cell-based, Wistar suckling rats
Method: as §1, §3, §4, §5, §6, §7, §8

FPN1 = assay: Western blot of FPN1 protein expression in primary cultured astrocytes; type: cell-based, Wistar suckling rats
Method: as §1, §2, §3, §4, §5, §6, §7, §8

HIF-2α [5] = assay: Western blot of HIF-2α protein expression in primary cultured VM neurons; type: cell-based, Wistar mice; settings: 10 μM 6-OHDA for 24 h, compared to control
Method: (§10) In order to detect the activation of HIF-1α and HIF-2α in the VM neurons by 6-OHDA, the cells were divided into groups and treated with drugs. After being treated with 10 μM of 6-OHDA for 24 h, the cells were collected to extract the total protein.
as §5, §6, §7, §8

HIF-1α [6] = assay: Western blot of HIF-1α protein expression in primary cultured VM neurons; type: cell-based, Wistar mice; settings: 10 μM 6-OHDA for 24 h, compared to control
Method: as §10, §5, §6, §7, §8

[7] = astrocytes, 10 μM 6-OHDA for 24 h, compared with control group
[8] = primary cultured astrocytes, 10 μM 6-OHDA for 24 h, compared with control
[9] = astrocytes treated with 10 μM BAY 87-2243 alone, compared with control group
[10] = astrocytes, 10 μM BAY 87-2243 pretreatment 48 h then 10 μM 6-OHDA 24 h, compared to 6-OHDA group
[11] = astrocytes treated with 10 μM HIF-2α inhibitor alone, compared to control group
[12] = astrocytes, 10 μM HIF-2α inhibitor pretreatment 24 h then 10 μM 6-OHDA 24 h, compared with 6-OHDA group
[13] = pretreatment with 10 μM HIF-2α inhibitor for 24 h, 10 μM 6-OHDA

NCCc1cc(O)c(O)cc1O [6-OHDA, 6-hydroxydopamine]
expression of DMT1 (DMT1; [7]): increased
ferrous iron influx (calcein fluorescence quenching) ([1]; cells treated with 10 μM 6-OHDA, compared with controls): more rapid fluorescence quenching
expression of HIF-2α (HIF-2α [2]; [8]): increased
iron efflux (calcein fluorescence intensity) ([3]; 10 μM 6-OHDA-treated group): marked increase in fluorescence intensity
expression of HIF-1α (HIF-1α [4]; [8]): increased
expression of FPN1 (FPN1; [7]): increased
protein level of HIF-2α (HIF-2α [5]): remained unchanged
protein level of HIF-1α (HIF-1α [6]): remained unchanged

Cc1cc(-c2nc(-c3ccc(OC(F)(F)F)cc3)no2)nn1Cc1ccnc(N2CCN(C3CC3)CC2)c1 [BAY 87-2243]
expression of DMT1 (DMT1; [9]): remained unchanged
expression of DMT1 (DMT1; [10]): did not change
expression of HIF-1α (HIF-1α [4]; [9]): decreased
expression of HIF-1α (HIF-1α [4]; astrocytes, 10 μM BAY 87-2243 pretreatment 48 h then co-treatment with 10 μM 6-OHDA 24 h, compared with 6-OHDA group): decreased
expression of FPN1 (FPN1; [9]): remained unchanged
expression of FPN1 (FPN1; [10]): did not change

COC(=O)c1sccc1N/N=C(\C#N)S(C)(=O)=O [HIF-2α inhibitor]
expression of DMT1 (DMT1; [11]): decreased
expression of DMT1 (DMT1; [12]): decreased
effect on 6-OHDA-increased ferrous iron influx (calcein fluorescence) [1, 13]: fully blocked
expression of HIF-2α (HIF-2α [2]; astrocytes treated with 10 μM HIF-2α inhibitor alone, compared with control group): decreased
expression of HIF-2α (HIF-2α [2]; astrocytes, 10 μM HIF-2α inhibitor pretreatment 24 h then co-treatment with 10 μM 6-OHDA 24 h, compared with 6-OHDA group): decreased
effect on 6-OHDA-caused ferrous iron efflux (calcein fluorescence) [3, 13]: fully blocked
expression of FPN1 (FPN1; [11]): decreased
expression of FPN1 (FPN1; [12]): decreased
